# Measured values reported in ChEMBL document CHEMBL3885861, “Open TG-GATES”.
# Species on record: Rattus norvegicus
# Experiment: Open TG-GATES - Regimen: Daily Repeat
# Type: toxicity, organism-based, Sprague-Dawley
# Design: regimen Daily Repeat, gender Male, age 6 weeks
# Conditions: in vivo, po, 3 mg/kg, route gavage, dose level Low; for APTT / Bas / Eos / Fbg / Hb / Ht / Lym / MCH / MCHC / MCV / Mono / Neu / PT / Plat / RBC / Ret / WBC: tissue Blood; for KIDNEY_L / KIDNEY_R / KIDNEY_TOTAL: tissue Kidney; for LIVER: tissue Liver; for A/G / ALP / ALT / AST / BUN / CRE / Ca / Cl / DBIL / GLC / IP / K / LDH / Na / PL / RALB / TBIL / TC / TG / TP / gamma-GTP: tissue Plasma
smiles,measurement,setting,value
CN(C)CCC(c1ccc(Cl)cc1)c1ccccn1 (configuration not stated) [CHLORPHENIRAMINE],TERMINAL_BW,"72 h, time 3 day",233.5 g
same,APTT,"72 h, time 3 day",18.3 s
same,Bas,"72 h, time 3 day",0.2%
same,Eos,"72 h, time 3 day",1%
same,Fbg,"72 h, time 3 day",299.4 mg/dL
same,Hb,"72 h, time 3 day",13.3 g/dL
same,Ht,"72 h, time 3 day",41.5%
same,Lym,"72 h, time 3 day",80.4%
same,MCH,"72 h, time 3 day",21 pg
same,MCHC,"72 h, time 3 day",32.1%
same,MCV,"72 h, time 3 day",65.5 fL
same,Mono,"72 h, time 3 day",2.8%
same,Neu,"72 h, time 3 day",15.2%
same,PT,"72 h, time 3 day",14.5 s
same,Plat,"72 h, time 3 day",124 x10_4/uL
same,RBC,"72 h, time 3 day",634 x10_4/ul
same,Ret,"72 h, time 3 day",7.1%
same,WBC,"72 h, time 3 day",89 x10_2/uL
same,KIDNEY_L,"72 h, time 3 day",1 g
same,KIDNEY_R,"72 h, time 3 day",0.9 g
same,KIDNEY_TOTAL,"72 h, time 3 day",1.9 g
same,LIVER,"72 h, time 3 day",11.3 g
same,A/G,"72 h, time 3 day",0.8
same,ALP,"72 h, time 3 day",1834.4 IU/L
same,ALT,"72 h, time 3 day",44.4 IU/L
same,AST,"72 h, time 3 day",66.4 IU/L
same,BUN,"72 h, time 3 day",16.2 mg/dL
same,CRE,"72 h, time 3 day",0.2 mg/dL
same,Ca,"72 h, time 3 day",10.6 mg/dL
same,Cl,"72 h, time 3 day",106.2 meq/L
same,DBIL,"72 h, time 3 day",0.018 mg/dL
same,GLC,"72 h, time 3 day",183.6 mg/dL
same,IP,"72 h, time 3 day",8.3 mg/dL
same,K,"72 h, time 3 day",4.3 meq/L
same,LDH,"72 h, time 3 day",94.6 IU/L
same,Na,"72 h, time 3 day",142 meq/L
same,PL,"72 h, time 3 day",162.6 mg/dL
same,RALB,"72 h, time 3 day",2.7 g/dL
same,TBIL,"72 h, time 3 day",0.04 mg/dL
same,TC,"72 h, time 3 day",86.6 mg/dL
same,TG,"72 h, time 3 day",109.8 mg/dL
same,TP,"72 h, time 3 day",5.8 g/dL
same,gamma-GTP,"72 h, time 3 day",1 IU/L
same,TERMINAL_BW,"[…], time 7 day",265.1 g
same,TERMINAL_BW,"[…], time 14 day",330.4 g
same,TERMINAL_BW,"[…], time 28 day",400.2 g
same,APTT,"[…], time 7 day",19.8 s
same,Bas,"[…], time 7 day",0%
same,Eos,"[…], time 7 day",1%
same,Fbg,"[…], time 7 day",289.8 mg/dL
same,Hb,"[…], time 7 day",13.7 g/dL
same,Ht,"[…], time 7 day",41.7%
same,Lym,"[…], time 7 day",77.2%
same,MCH,"[…], time 7 day",20.6 pg
same,MCHC,"[…], time 7 day",32.8%
same,MCV,"[…], time 7 day",62.8 fL
same,Mono,"[…], time 7 day",2.6%
same,Neu,"[…], time 7 day",18.4%
same,PT,"[…], time 7 day",14 s
same,Plat,"[…], time 7 day",116 x10_4/uL
same,RBC,"[…], time 7 day",665 x10_4/ul
same,Ret,"[…], time 7 day",6%
same,WBC,"[…], time 7 day",80.2 x10_2/uL
same,APTT,"[…], time 14 day",18.1 s
same,Bas,"[…], time 14 day",0.2%
same,Eos,"[…], time 14 day",1%
same,Fbg,"[…], time 14 day",299 mg/dL
same,Hb,"[…], time 14 day",14.4 g/dL
same,Ht,"[…], time 14 day",43.5%
same,Lym,"[…], time 14 day",80.2%
same,MCH,"[…], time 14 day",20.5 pg
same,MCHC,"[…], time 14 day",33.1%
same,MCV,"[…], time 14 day",61.9 fL
same,Mono,"[…], time 14 day",2.8%
same,Neu,"[…], time 14 day",15%
same,PT,"[…], time 14 day",14.4 s
same,Plat,"[…], time 14 day",119.7 x10_4/uL
same,RBC,"[…], time 14 day",703.8 x10_4/ul
same,Ret,"[…], time 14 day",4.6%
same,WBC,"[…], time 14 day",85 x10_2/uL
same,APTT,"[…], time 28 day",17.7 s
same,Bas,"[…], time 28 day",0.4%
same,Eos,"[…], time 28 day",1%
same,Fbg,"[…], time 28 day",281.2 mg/dL
same,Hb,"[…], time 28 day",15.6 g/dL
same,Ht,"[…], time 28 day",46.5%
same,Lym,"[…], time 28 day",77.4%
same,MCH,"[…], time 28 day",19 pg
same,MCHC,"[…], time 28 day",33.5%
same,MCV,"[…], time 28 day",56.8 fL
same,Mono,"[…], time 28 day",2.4%
same,Neu,"[…], time 28 day",18%
same,PT,"[…], time 28 day",14.5 s
same,Plat,"[…], time 28 day",107.8 x10_4/uL
same,RBC,"[…], time 28 day",819.6 x10_4/ul
same,Ret,"[…], time 28 day",2.4%
same,WBC,"[…], time 28 day",82.8 x10_2/uL
same,KIDNEY_L,"[…], time 7 day",1.1 g
same,KIDNEY_R,"[…], time 7 day",1.1 g
same,KIDNEY_TOTAL,"[…], time 7 day",2.2 g
same,KIDNEY_L,"[…], time 14 day",1.2 g
same,KIDNEY_R,"[…], time 14 day",1.2 g
same,KIDNEY_TOTAL,"[…], time 14 day",2.5 g
same,KIDNEY_L,"[…], time 28 day",1.4 g
same,KIDNEY_R,"[…], time 28 day",1.4 g
same,KIDNEY_TOTAL,"[…], time 28 day",2.8 g
same,LIVER,"[…], time 7 day",12.6 g
same,LIVER,"[…], time 14 day",14.8 g
same,LIVER,"[…], time 28 day",15.6 g
same,A/G,"[…], time 7 day",0.8
same,ALP,"[…], time 7 day",1694.2 IU/L
same,ALT,"[…], time 7 day",41.6 IU/L
same,AST,"[…], time 7 day",68 IU/L
same,BUN,"[…], time 7 day",15.6 mg/dL
same,CRE,"[…], time 7 day",0.2 mg/dL
same,Ca,"[…], time 7 day",11.4 mg/dL
same,Cl,"[…], time 7 day",106.2 meq/L
same,DBIL,"[…], time 7 day",0.014 mg/dL
same,GLC,"[…], time 7 day",194 mg/dL
same,IP,"[…], time 7 day",7.7 mg/dL
same,K,"[…], time 7 day",4.2 meq/L
same,LDH,"[…], time 7 day",93 IU/L
same,Na,"[…], time 7 day",144 meq/L
same,PL,"[…], time 7 day",159.8 mg/dL
same,RALB,"[…], time 7 day",2.7 g/dL
same,TBIL,"[…], time 7 day",0.032 mg/dL
same,TC,"[…], time 7 day",77.8 mg/dL
same,TG,"[…], time 7 day",135 mg/dL
same,TP,"[…], time 7 day",6 g/dL
same,gamma-GTP,"[…], time 7 day",1 IU/L
same,A/G,"[…], time 14 day",0.8
same,ALP,"[…], time 14 day",1670 IU/L
same,ALT,"[…], time 14 day",39.2 IU/L
same,AST,"[…], time 14 day",64.2 IU/L
same,BUN,"[…], time 14 day",16.4 mg/dL
same,CRE,"[…], time 14 day",0.2 mg/dL
same,Ca,"[…], time 14 day",11.1 mg/dL
same,Cl,"[…], time 14 day",105.2 meq/L
same,DBIL,"[…], time 14 day",0.02 mg/dL
same,GLC,"[…], time 14 day",194 mg/dL
same,IP,"[…], time 14 day",7.7 mg/dL
same,K,"[…], time 14 day",4.1 meq/L
same,LDH,"[…], time 14 day",103.6 IU/L
same,Na,"[…], time 14 day",143.4 meq/L
same,PL,"[…], time 14 day",160.8 mg/dL
same,RALB,"[…], time 14 day",2.8 g/dL
same,TBIL,"[…], time 14 day",0.034 mg/dL
same,TC,"[…], time 14 day",77 mg/dL
same,TG,"[…], time 14 day",153 mg/dL
same,TP,"[…], time 14 day",6.1 g/dL
same,gamma-GTP,"[…], time 14 day",1 IU/L
same,A/G,"[…], time 28 day",0.8
same,ALP,"[…], time 28 day",1190.6 IU/L
same,ALT,"[…], time 28 day",38.6 IU/L
same,AST,"[…], time 28 day",63.8 IU/L
same,BUN,"[…], time 28 day",17 mg/dL
same,CRE,"[…], time 28 day",0.2 mg/dL
same,Ca,"[…], time 28 day",10.6 mg/dL
same,Cl,"[…], time 28 day",107.6 meq/L
same,DBIL,"[…], time 28 day",0.014 mg/dL
same,GLC,"[…], time 28 day",186.2 mg/dL
same,IP,"[…], time 28 day",6.2 mg/dL
same,K,"[…], time 28 day",4 meq/L
same,LDH,"[…], time 28 day",70.4 IU/L
same,Na,"[…], time 28 day",145 meq/L
same,PL,"[…], time 28 day",156.2 mg/dL
same,RALB,"[…], time 28 day",2.8 g/dL
same,TBIL,"[…], time 28 day",0.028 mg/dL
same,TC,"[…], time 28 day",75.2 mg/dL
same,TG,"[…], time 28 day",148 mg/dL
same,TP,"[…], time 28 day",6.4 g/dL
same,gamma-GTP,"[…], time 28 day",0.8 IU/L
